Experimental data as given in patent US20100317671A1, “XANTHINE-BASED CYCLIC GMP-ENHANCING RHO-KINASE INHIBITOR INHIBITS PHYSIOLOGICAL ACTIVITIES OF LUNG EPITHELIAL CELL LINE” (KAOHSIUNG MEDICAL UNIVERSITY, priority 2008, published 2010).
Structures can show the parent of a compound that is named as a salt.

What was measured:
[1] = Body weight change, bleomycin-induced IPF mice; type: in vivo
Experimental: The six-week old mice are used in this experiment and divided into ten groups as follows. […] The six-week old male C57B1/6 mice are purchased from the National Laboratory Animal Center. […] After being […] pentobarbital in the dose of 0.52 mg/10 g, the mice is kept upright and positioned an otoscope into the larynx for looking into the trachea clearly. The bleomycin is loaded by a loading tip for intratracheal administration.

[2] = test system: inflammatory cells in the lung lavage; test: Inflammatory cells in lung lavage, bleomycin-induced IPF mice; type: in vivo; design: WBC total (white blood cell total count) / NE (neutrophil) / LY (lymphocyte) / MO (monocyte) / EO (eosinophil) / BA (basophil): unit not given here; details: lung lavage
Experimental: The amounts of the total cell, the neutrophill, the lymphocyte, the monocyte, the eosinophill and the basophill are analyzed by an automatic animal blood cell analyzer for evaluating the extent of the inflammation. […] The mice are euthanatized by administering the Urathane in a dose of 37.5 mg/10 g. The larynx is opened, the trachea is picked out, cut and held by a forcepts and a 0.58 mm PE tube is slowly inserted the trachea for infusing 0.5 ml PBS. The PBS is incubated for 15 seconds and then collected after gently massaging the lung tissue. 1 c.c. lung lavage is obtained after the above steps are repeated twice. The lung lavage is collected and transferred into a centrifuged tube for centrifuging at 1,200 rpm at 4° C. for 6 mins. The supernatant is collected and stored at −80° C. for zymography, and the pellet is suspended in PBS for calculating the WBC count. The pellet of the alveolar lavage is suspended in PBS and transferred into an eppendorff. The amount and kind of the inflammatory cell such as WBC total, the lymphocyte, the monocyte, the neutrophil, the eosinophil and the basophil are analyzed by an automatic animal blood cell analyzer.

collagen = test: Collagen amount, bleomycin-induced IPF mice; type: in vivo; details: day 28 after BLM
Experimental: The amount of the collagen in the lung lavage is measured to reflect the fibrosis formation. […] (2) After the lung lavage is obtained, the chest of mice is opened and the lung lobes are cut one by one. […] The 1.5 ml eppendorffs are taken to arrange the calibration curve as follows. […] The eppendorff is then centrifuged at 12,000 rpm for 10 mins. The supernatant in the eppendorff is poured out slowly, 1 ml basic compound is added for dissolving the precipitation. After being violently shaken for 5 mins, the reaction is incubated for 3 hrs to stabilize the color. […] The amount of collagen is estimated through the 540 nm absorption measured by the ELISA reader.

inflammatory cells = test: H&E stain of lung tissue sections, bleomycin mice; type: in vivo; details: day 28
Excerpt: In the histology observation, the bleomycin-induced mice show the pathology characteristic of lung fibrosis. In the lung tissue sections of the normal control group, the structure of the lung tissue is clear and has no inflammatory cells infiltration, the alveolar wall is complete and not being broaden, the lung atrophy and the vascular wall thickening are not found, and the inflammatory cells infiltration is not found in the bronchial cavity and the alveolar cavity. […] On day 28, the alveolar is dystructured, the macrophage aggregation can be seen in part of aveoli, the fibroblast and fibric cell proliferate, and the fibers are accumulated in the lung interstitium. In the treating group, the inflammatory state is inhibited well on day 7.
The with 10% formalin treated and freezed lung is placed in a tissue dehydrating machine, and the tissue is fixed, dehydrated, washed and rinsed in turn. The tissue is further prepared as a wax-embedded tissue by a tissue embedded machine through appropriate cooling. The wax-embedded tissue is cut by a sliding microtome. The slices about 4 μm are placed on the slides and extended in 35° C.-50° C. warm water, and then dried in a 56° C.-60° C. extender for staining
The slices are successively dehydrated via 50%-99.9% ethanol, incubated in xylene for 2 hrs and the incubation step is repeated twice. […]

MMP-9 [3] = test: OVA-induced MMP-9 expression in lung tissue, asthma mice; type: in vivo, BALB/c mice; details: OVA + drug 5 mM spray, 30 mins/day, days 21 to 27; lung tissue; OVA + vehicle control 100%
Experimental: The male BALB/c mice (20-23 g) are injected (i.p.) with OVA (5 mM, 30 mins), sensitized with OVA on day 1 and day 8 via i.p injection and activated by 2 mg aluminum hydroxide to which 2 μg OVA is absorbed. […] The asthmatic animals are divided into 5 groups, wherein the control group is only administered with saline spray and the remaining experimental groups are firstly administered with 1% OVA spray and then administered with the sprays of the related complex salts respectively as shown in Table 4. The inhibition of the expression of OVA-induced MMP-9 in lung tissue of BALB/c mice is measured.

[4] = Monocrotaline (MCT)-induced pulmonary arterial hypertension, PABP; type: in vivo, male Wistar rats; details: MCT-treated rats; for Pulmonary arterial blood pressure (PABP), in words: 2.5 mg/kg orally every day; for PABP: 2.5 mg/kg/day p.o.
Experimental: The rats administered MCT (60 mg/kg) are caused pulmonary artery hypertension on day 21 after the intraperitoneal injection. The KMUP-1HCl salt (2.5 mg/kg), Simvastatin (2.5 mg/kg), KMUP-1-nicotinic acid complex (2.5 mg/kg), KMUP-1-citric acid complex (2.5 mg/kg), KMUP-1-Simvastatinic Acid complex (2.5 mg/kg) and KMUP-1-γ-polyglutamic acid complex (2.5 mg/kg) orally administered, or the KMUP-1-PGI2 complex (0.1 mM) inhaled every day may inhibit the pulmonary arterial blood pressure (PABP) in MCT-treated male Wistar rats.

TGF-β = TGF-β expression, bleomycin-induced lung fibrosis (EIA); type: in vivo, mice; details: BM 60 mg/kg
Experimental: The increased amount of the collagen synthesis and the macrophage generation in alveolus may facilitate the formulation of TGF-β, and the expression of TGF-β is deeming as a biomarker of the lung fibrosis. KMUP-1HCl salt (1, 2.5 and 5 mg/kg), the Simvastatin (5 mg/kg), the KMUP-1-nicotinic acid complex (2.5 mg/kg), the KMUP-1-Simvastatinic acid complex (2.5 mg/kg) and KMUP-1-γ-polyglutamic acid complex (2.5 mg/kg) are orally administered to the mice for inhibiting the lung fibrosis induced by TGF-β expression in tracheal lavage solution that resulted from 60 mg/kg BM inhalation (Table 6). The state of the TGF-β expression in the lavage is measured by the enzyme immunoassay (EIA).

MMP-9 [5] = test: Short-term nebulization without OVA sensitization, lung tissue; type: in vivo, mice; details: L-NAME-pretreatment 12 mM, 30 mins
Experimental: (§1) Short-term KMUP-1 (5 mM, 30 min) nebulization and pretreatment with L-NAME (12 mM, […]) are accomplished using a previously described method. Aerosols were generated by ultrasonic nebulizer from day 21 to 27. Mice were sacrificed on day 28. Three different experiments were performed on cohorts of 7-14 mice per experimental condition.
(§2) Please refer to FIGS. 22(B) and 23(B), the changes of eNOS and MMP-9 expression by KMUP-1 (2.5 mM, 30 mins) are reversed by L-NAME-pretreatment (12 mM, 30 mins).

eNOS = test: as above; type: in vivo, mice; details: L-NAME-pretreatment 12 mM, 30 mins
Experimental: as §1, §2

CC[C@H]1OC(=O)[C@H](C)[C@@H](O[C@H]2C[C@@](C)(OC)[C@@H](O)[C@H](C)O2)[C@H](C)[C@@H](O[C@@H]2O[C@H](C)C[C@H](N(C)C)[C@H]2O)[C@](C)(OC)C[C@@H](C)C(=O)[C@H](C)[C@@H](O)[C@]1(C)O [Clarithromycin, reference compound]
Body weight ([1]; Day 7, dose 10 mg/kg): 19.93 ± 3.28 g | Body weight ([1]; Day 14, dose 10 mg/kg): 19.17 ± 3.77 g | Body weight ([1]; Day 28, dose 10 mg/kg): 24.7 ± 1.21 g | Body weight ([1]; Day −3, dose 10 mg/kg): 24.6 ± 1.48 g | BA (basophil) ([2]; day 7, dose 10 mg/kg): 0.02 ± 0.01 | EO (eosinophil) ([2]; day 7, dose 10 mg/kg): 0.07 ± 0.02 | LY (lymphocyte) ([2]; day 7, dose 10 mg/kg): 0.56 ± 0.17 | MO (monocyte) ([2]; day 7, dose 10 mg/kg): 0.05 ± 0.02 | NE (neutrophil) ([2]; day 7, dose 10 mg/kg): 0.2 ± 0.09 | WBC total (white blood cell total count) ([2]; day 7, dose 10 mg/kg): 0.89 ± 0.3 | BA (basophil) ([2]; day 28, dose 10 mg/kg): 0.25 ± 0.16 | EO (eosinophil) ([2]; day 28, dose 10 mg/kg): 0.5 ± 0.33 | LY (lymphocyte) ([2]; day 28, dose 10 mg/kg): 1.64 ± 1.49 | MO (monocyte) ([2]; day 28, dose 10 mg/kg): 0.16 ± 0.16 | NE (neutrophil) ([2]; day 28, dose 10 mg/kg): 0.68 ± 0.57 | WBC total (white blood cell total count) ([2]; day 28, dose 10 mg/kg): 3.23 ± 0.52 | The amount of collagen (collagen; dose 10 mg/kg): 86.07 ± 0.02 μg/lung | Inflammation, H&E stain (inflammatory cells): still has a significant inflammation phenomenon

Cn1c(=O)c2c(ncn2CCN2CCN(c3ccccc3Cl)CC2)n(C)c1=O [KMUP-1 HCl salt]
Inhibition % of the MMP-9 (MMP-9 [3]): 55% | Pulmonary arterial blood pressure (PABP), in words [4]: inhibit | PABP [4]: 13 ± 1.7 mmHg | The changing amount of TGF-β in the lung tissue (TGF-β; drug 2.5 mg/kg oral): 52 ± 5.2%

CC(=O)N[C@@H](CS)C(=O)O.Cn1c(=O)c2c(ncn2CCN2CCN(c3ccccc3Cl)CC2)n(C)c1=O [KMUP-1-Acetylcysteine]
Inhibition % of the MMP-9 (MMP-9 [3]): 68%

Cn1c(=O)c2c(ncn2CCN2CCN(c3ccccc3Cl)CC2)n(C)c1=O.N=C(N)NCCCC(N)C(=O)O [KMUP-1-Arginine]
Inhibition % of the MMP-9 (MMP-9 [3]): 65%

CC(C)(O)c1ccccc1CCC(SCC1(CC(=O)O)CC1)c1cccc(C=Cc2ccc3ccc(Cl)cc3n2)c1.Cn1c(=O)c2c(ncn2CCN2CCN(c3ccccc3Cl)CC2)n(C)c1=O (stereo not drawn) [KMUP-1-Montelukast]
Inhibition % of the MMP-9 (MMP-9 [3]): 70%

Cn1c(=O)c2c(ncn2CCN2CCN(c3ccccc3Cl)CC2)n(C)c1=O.O=C(O)c1cccnc1 [KMUP-1-Nicotinic acid]
Pulmonary arterial blood pressure (PABP), in words [4]: inhibit | PABP [4]: 12 ± 2.6 mmHg | The changing amount of TGF-β in the lung tissue (TGF-β; drug 2.5 mg/kg oral): 42 ± 3.8%

COC(=O)[C@@H](N)CCCNC(=N)N[N+](=O)[O-] [L-NAME, reference compound]
Change of MMP-9 expression by KMUP-1 (2.5 mM, 30 mins) (MMP-9 [5]): reversed | Change of eNOS expression by KMUP-1 (2.5 mM, 30 mins) (eNOS): reversed

CCC(C)(C)C(=O)O[C@H]1C[C@@H](C)C=C2C=C[C@H](C)[C@H](CC[C@@H]3C[C@@H](O)CC(=O)O3)[C@H]21 [Simvastatin, reference compound]
Body weight ([1]; Day 7, dose 5 mg/kg): 17.9 ± 1.56 g | Body weight ([1]; Day 14, dose 5 mg/kg): 19.8 ± 2.31 g | Body weight ([1]; Day 28, dose 5 mg/kg): 20.3 ± 1.65 g | Body weight ([1]; Day −3, dose 5 mg/kg): 23.5 ± 1.32 g | BA (basophil) ([2]; day 7, dose 5 mg/kg): 0.22 ± 0.23 | EO (eosinophil) ([2]; day 7, dose 5 mg/kg): 0.46 ± 0.4 | LY (lymphocyte) ([2]; day 7, dose 5 mg/kg): 1.5 ± 2.17 | MO (monocyte) ([2]; day 7, dose 5 mg/kg): 0.13 ± 0.19 | NE (neutrophil) ([2]; day 7, dose 5 mg/kg): 0.76 ± 0.53 | WBC total (white blood cell total count) ([2]; day 7, dose 5 mg/kg): 3.09 ± 2.98 | BA (basophil) ([2]; day 28, dose 5 mg/kg): 0.22 ± 0.22 | EO (eosinophil) ([2]; day 28, dose 5 mg/kg): 0.46 ± 0.35 | LY (lymphocyte) ([2]; day 28, dose 5 mg/kg): 1.5 ± 3.03 | MO (monocyte) ([2]; day 28, dose 5 mg/kg): 0.13 ± 0.26 | NE (neutrophil) ([2]; day 28, dose 5 mg/kg): 0.76 ± 0.61 | WBC total (white blood cell total count) ([2]; day 28, dose 5 mg/kg): 3.09 ± 0.92 | The amount of collagen (collagen; dose 5 mg/kg): 140.53 ± 0.05 μg/lung | The changing amount of TGF-β in the lung tissue (TGF-β; drug 5 mg/kg oral): 40 ± 4.3%
